Results from patent publication US20050137247A1, “Methods and compositions for treatment of hypertension” (The Brigham and Women's Hospital, Inc., priority 2003, published 2005).
Several values for one entry are separate records, joined by “and”; a condition that tells them apart may be missing. Equal values may be shown once. Entries after “also recorded” stand apart in the source; their conditions may differ.

Key:
Format in all cases: in vivo, human
[1] = system: male patients with untreated, uncomplicated, essential hypertension; experiment: Actigraphic estimates of sleep quality (Actiwatch)
Method: (§1) Measurements. […] Ambulatory blood pressure was measured every half hour for 32 hours, from 8 hours before bedtime until bedtime the next day. In addition, noninvasive finger arterial blood pressure recordings were performed by Finometer (TNO Biomedical Instruments, Amsterdam, The Netherlands) (Bos, W. J., et al., Circulation, 94 (1996) 1870-5), to estimate changes in total peripheral resistance, stroke volume, and cardiac output, as possible explanations for changes in blood pressure. […] During all ambulatory blood pressure recordings, the subjects reported sleep details in a sleep-wake diary and wore an Actiwatch (Cambridge Neurotechnology Ltd, Cambridge, UK), a piezo-electric accelerometer, on the non-dominant wrist to assess motor activity at 1 min intervals for the estimation of sleep quality.
(§2) Data analysis. Sleep blood pressure was defined as the mean blood pressure from the time of falling asleep until the time of awakening, as determined by actigraphy. Awake blood pressure was defined as the mean blood pressure during the remaining portion of the day. Continuous Finometer data were analyzed by Beatscope software (TNO-Biomedical Instruments, Amsterdam, The Netherlands) (Bos, W. J., et al., Circulation, 94 (1996) 1870-5). Periods of 5 min with a stable blood pressure signal were used for both supine and standing periods. To accurately determine the sleeping period and estimate sleep quality, automatic sleep/wake scoring was performed with Actiwatch Sleep Analysis 98 (Cambridge Neurotechnology Ltd, V4.15), with sensitivity set to medium, on the actigraphy data between “bed time” and “get up time” derived from the sleep-wake diaries. Three sleep variables were objectively computed by this analysis. ‘Sleep latency’ was the calculated time between bed time and sleep onset. The time asleep was termed actual sleep time. The percentage of time asleep while in bed was defined as ‘sleep efficiency’.

[2] = system: male patients with untreated, uncomplicated, essential hypertension; experiment: 24-hour ambulatory blood pressure and heart rate, randomized double-blind placebo-controlled crossover trial
Text: Patients. Sixteen male patients with untreated, uncomplicated, essential hypertension were included in the study. Women were excluded to prevent possible interference of the menstrual cycle and oral anticonceptives on cardiovascular and circadian regulation. Patients were considered hypertensive, with a daytime ambulatory blood pressure between 140-179 mm Hg systolic or between 90-109 mm Hg diastolic. Secondary hypertension was excluded by medical history and routine laboratory tests. Five patients had never received antihypertensive medication; in the others antihypertensive treatment was stopped at least three weeks before participation. Their mean (±SD) age was 55±8 (range 36-68) years and mean BMI was 26.8±.1.7 (23.3-29.1) kg/m^2. Mean self reported habitual waking and bedtimes were 06:38 a.m. ±55 minutes and 11:29 p.m. ±26 minutes, respectively. […] Five days before and during ambulatory blood pressure measurements, subjects maintained fixed sleep-wake cycles according to their habitual sleep-wake cycle. All procedures were carried out with adequate understanding and written consent of the subjects and were approved by the Ethics Committee of the Academic Medical Center of the University of Amsterdam.
Study Design. […] On assessment days, patients abstained from heavy physical exercise, daytime napping, alcohol and nicotine consumption and coffee was restricted to two consumptions per day during breakfast or lunch. Meal times were restricted to the following periods: breakfast 1 to 1.5 hours after waking; lunch 11 to 10 hours before bedtime; and dinner 5 to 4 hours before bedtime.
as §1, §2
Statistics. Because not all variables were normally distributed (Shapiro's-Wilk's W Test), non-parametric tests were used as required. Consequently, Altman's crossover analysis methods were applied (Altman, D. G., Crossover trials, Practical statistics for medical research, Vol. 1, Chapman and Hall. London, 1991, pp. 467-471). […]

[3] = system: male patients with untreated, uncomplicated, essential hypertension; experiment: Finger arterial blood pressure recordings by Finometer; conditions: repeated melatonin; supine resting or standing, daytime
Method: as §1, §2

[4] = system: male patients with untreated, uncomplicated, essential hypertension; experiment: 24-hour rhythm analysis of ambulatory blood pressure (peaked and skewed cosine fit)
Text: Statistics. Because not all variables were normally distributed (Shapiro's-Wilk's W Test), non-parametric tests were used as required. Consequently, Altman's crossover analysis methods were applied (Altman, D. G., Crossover trials, Practical statistics for medical research, Vol. 1, Chapman and Hall. London, 1991, pp. 467-471). […] Student's t-tests for independent variables or Mann-Whitney U tests were applied for all dependent variables to test a carryover effect for (1) single treatment periods, and (2) repeated treatment periods. Correlation between a change in sleep quality and a change in sleep blood pressure was tested by linear correlation. The 24-hour rhythm in blood pressure was fitted by standard cyclic regression models: cosine, cosine with second harmonic, skewed cosine, peaked cosine, and skewed and peaked cosine analysis (Batschelet, E., Circular Statistics in Biology, Academic Press, 1981, 371 pp.). Of these, the latter best fitted the data as indicated by the Akaike's Information Criterion (AIC) (de Leeuw, J., introduction to Akaike (1973) Information Theory and an Extension of the Maximum Likelihood Principle. In S. Kotz and N. L. Johnson (Eds.), Breakthroughs in statistics, Vol. 1, Springer-Verlag. London, 1992 pp. 599-609) and was used for subsequent analysis. Two-tailed p values lower than 0.05 were considered to indicate statistical significance. All group data are presented as means±standard deviation (SD) or means including 95% confidence interval (95% CI).
24-Hour rhythm analysis of ambulatory blood pressure. For 24-hour rhythm analysis of ambulatory blood pressure, the peaked and skewed cosine analysis was used. […] The decrease in minimum and mean systolic blood pressure was not significant (−6±15 mm Hg; p=0. 13 and −5±12 mm Hg; p=0. 19).

[5] = 3 weeks melatonin vs 3 weeks placebo, not significant
[6] = acute (single) melatonin 2.5 mg vs single placebo
[7] = after 3 weeks melatonin 2.5 mg orally 1 hour before bedtime, mean ± SD
[8] = individual patient 14, relative to placebo level (FIG. 2)
[9] = 3 weeks melatonin vs 3 weeks placebo
[10] = repeated melatonin vs placebo, no effect

COc1ccc2[nH]cc(CCNC(C)=O)c2c1 [Melatonin, N-acetyl-5-methoxy-tryptamine]
effect on actual sleep time ([1]; acute melatonin application): no significant effect | effect on sleep latency ([1]; acute melatonin application): no significant effect | sleep latency ([1]; after repeated melatonin (placebo 33 minutes)): 22 min | actual sleep time ([1]; after repeated melatonin (placebo 5.6 hours)): 6.1 h | change in awake diastolic blood pressure [2, 5]: −1 mm Hg | change in awake systolic blood pressure [2, 5]: −5 mm Hg | effect on diastolic blood pressure awake [2, 6]: no effect | effect on diastolic blood pressure whilst asleep [2, 6]: no effect | effect on systolic blood pressure awake [2, 6]: no effect | effect on systolic blood pressure whilst asleep [2, 6]: no effect | Sleeping Period Distolic BP [2, 7]: 82.4 ± 4.0 | Sleeping Period Heart Rate [2, 7]: 61.1 ± 6.5 | Sleeping Period Systolic BP [2, 7]: 130.6 ± 10.0 | Waking Period Distolic BP [2, 7]: 95.4 ± 7.7 | Waking Period Heart Rate [2, 7]: 71.2 ± 7.8 | Waking Period Systolic BP [2, 7]: 147.6 ± 12.3 | effect of repeated melatonin on waking diastolic blood pressure, patient 14 [2, 8]: −27 mm Hg | effect of repeated melatonin on waking systolic blood pressure, patient 14 [2, 8]: −53 mm Hg | reduction of sleep diastolic blood pressure ([2]; repeated (3 weeks daily) 2.5 mg melatonin 1 hour before bedtime vs 3 weeks placebo): 4±6 mm Hg and 4 mm Hg | effect on heart rate ([2]; repeated (3 weeks daily) 2.5 mg melatonin vs placebo): without a change; also recorded: did not affect | effect on blood pressure ([2]; single dose of melatonin 2.5 mg): no effect | effect on blood pressure (Finometer) [3]: no elect | effect on cardiac output (Finometer) [3]: no elect | effect on heart rate (Finometer) [3]: no elect | effect on stroke volume (Finometer) [3]: no elect | effect on total peripheral resistance (Finometer) [3]: no elect | decrease of calculated mean diastolic blood pressure [4, 9]: 4±6 mm Hg | decrease of calculated minimum diastolic blood pressure [4, 9]: 5±7 mm Hg | increase of day-night rhythm amplitude of diastolic blood pressure [4, 9]: 25% | increase of day-night rhythm amplitude of systolic blood pressure [4, 9]: 15% | change in mean systolic blood pressure [4, 5]: −5±12 mm Hg | change in minimum systolic blood pressure [4, 5]: −6±15 mm Hg | effect on time of the minimum blood pressure ([4]; repeated melatonin vs placebo): no effects | change in maximum diastolic blood pressure [4, 10]: −1±5 mm Hg | change in maximum systolic blood pressure [4, 10]: −2±12 mm Hg
